Values belong to the molecule of their own block, whether it stands above or below them. Active and inactive are the calls of the source. The rule behind the calls is not given here.
Legend:
A549 [1] = test: Cytotoxicity against human A549 cells at 1 to 50 uM treated 24 hrs post hypoxic condition measured after 72 hrs under hypoxic condition by WST-8 assay relative to control; format: functional, cell-based
[2] = target: T1, NADPH--cytochrome P450 reductase (Homo sapiens, UniProt P16435); test: Prodrug activation in pH 7.4 PBS buffer assessed as 3.3 ug/mL NADPH-cytochrome P450 reductase (unknown origin) mediated FdUrd formation at 0.62 mM in the presence of beta-NADPH measured after 2 hrs under aerobic condition by reverse phase HPLC; format: ADME; conditions: pH 7.4, 2 h, 620 µM
T1 sequence (P16435 whole entry): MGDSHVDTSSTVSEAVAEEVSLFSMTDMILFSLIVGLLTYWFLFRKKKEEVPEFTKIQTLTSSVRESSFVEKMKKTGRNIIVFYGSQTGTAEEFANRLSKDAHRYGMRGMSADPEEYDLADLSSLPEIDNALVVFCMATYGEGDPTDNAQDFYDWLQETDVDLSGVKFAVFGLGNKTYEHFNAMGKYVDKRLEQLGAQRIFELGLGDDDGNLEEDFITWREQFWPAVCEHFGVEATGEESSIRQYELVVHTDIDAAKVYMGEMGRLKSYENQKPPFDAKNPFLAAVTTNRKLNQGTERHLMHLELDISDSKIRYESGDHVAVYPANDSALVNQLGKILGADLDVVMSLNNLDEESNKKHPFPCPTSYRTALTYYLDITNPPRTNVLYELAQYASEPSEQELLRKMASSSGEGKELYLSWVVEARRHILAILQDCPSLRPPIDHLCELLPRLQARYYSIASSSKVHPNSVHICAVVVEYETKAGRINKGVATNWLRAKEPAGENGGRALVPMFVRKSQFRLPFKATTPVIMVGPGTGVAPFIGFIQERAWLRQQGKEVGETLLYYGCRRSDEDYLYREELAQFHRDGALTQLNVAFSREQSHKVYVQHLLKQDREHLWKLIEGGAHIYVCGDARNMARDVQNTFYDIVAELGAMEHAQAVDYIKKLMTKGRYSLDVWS

A549 [3] = test: Cytotoxicity against human A549 cells at 1 uM treated 24 hrs post aerobic condition and measured after 72 hrs under aerobic condition by WST-8 assay relative to control; format: cell-based; conditions: a549, 72 h
[4] = target: T1, NADPH--cytochrome P450 reductase; test: Prodrug activation in pH 7.4 PBS buffer assessed as 3.3 ug/mL NADPH-cytochrome P450 reductase (unknown origin) mediated FdUrd formation at 0.62 mM in the presence of beta-NADPH measured after 2 hrs under hypoxic condition by reverse phase HPLC relative to control; format: ADME; conditions: pH 7.4, 2 h, 620 µM
[5] = substrate: COC1=CC(=O)c2c(c(Cn3c(=O)c(F)cn([C@H]4C[C@H](O)[C@@H](CO)O4)c3=O)c(C)n2C)C1=O; test: Prodrug conversion in pH 7.4 PBS buffer assessed as NADPH-cytochrome P450 reductase (unknown origin) mediated FdUrd release by measuring Km at 0.62 mM in the presence of beta-NADPH measured after 2 hrs under hypoxic condition by Lineweaver-Burk plot analysis; format: ADME, Homo sapiens
[6] = substrate: COC1=CC(=O)c2c(c(Cn3c(=O)c(F)cn([C@H]4C[C@H](O)[C@@H](CO)O4)c3=O)c(C)n2C)C1=O; test: Prodrug conversion in pH 7.4 PBS buffer assessed as NADPH-cytochrome P450 reductase (unknown origin) mediated FdUrd release by measuring Km at 0.62 mM in the presence of beta-NADPH measured after 2 hrs under aerobic condition by Lineweaver-Burk plot analysis; format: ADME, Homo sapiens

Drug metabolism [2]: Metabolite_Notdetected
Molecule: COC1=CC(=O)c2c(c(Cn3c(=O)c(F)cn([C@H]4C[C@H](O)[C@@H](CO)O4)c3=O)c(C)n2C)C1=O
Activity (A549 [1]): Active
Activity (A549 [3]): Non-Toxic

Drug metabolism [4]: Metabolite_Notdetected
Molecule: CNC1=CC(=O)c2c(c(Cn3c(=O)c(F)cn([C@H]4C[C@H](O)[C@@H](CO)O4)c3=O)c(C)n2C)C1=O

Second part, the molecule before the results:

Molecule: O=c1[nH]c(=O)n([C@H]2C[C@H](O)[C@@H](CO)O2)cc1F [FLOXURIDINE]
Activity (A549 [3]): Toxic

B1: NADPH--cytochrome P450 reductase (Homo sapiens) (protein)
chain: T1 sequence (P16435 whole entry)
Km [5]: 1000 µM
Vmax [5]: 3.4e-06 µmol/min
Km [6]: 1500 µM
Vmax [6]: 2e-07 µmol/min
